According to patent US12281122B1, “PI3K inhibitors” (Cogent Biosciences, Inc., priority 2023, dated 2025):
pIC50: −log10 of the molar value.

How the values were obtained:
[1] = tested on: T47D (PI3Kα-H1047R) cell line; assay: HTRF phospho-AKT(S473) cell assay in T47D cells; assay type: cell-based, human; conditions: Homo sapiens; T47D (PI3Kα-H1047R) cells, HTRF phospho-AKT(S473), 2 hours compound incubation
Outline: (§1)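 T47D (PI3Kα-H1047R; RPMI, 10% FBS, insulin) and SKBR3 (wild-type PI3Kα; McCoy's 5A, 10% FBS) cells treated 2 h at 37 °C with 12-point 1:3 dilutions, top 5 μM and 10 μM respectively, ≤0.5% DMSO. SKBR3 stimulated with 70 ng/ml PDGF-BB for the last 15 min; lysate pAKT(S473) by HTRF, IC50 from curves.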

[2] = tested on: SKBR3 (PI3Kα-Wild Type) cell line; assay: HTRF phospho-AKT(S473) cell assay in SKBR3 cells; assay type: cell-based, human; conditions: Homo sapiens, SK-BR-3; SKBR3 (PI3Kα-Wild Type) cells, HTRF phospho-AKT(S473), 2 hours compound incubation, PDGF-BB stimulated
Outline: as §1

Compound	pIC50 [1]	pIC50 [2]
Cc1cc([C@@H](C)Nc2ccc(Cl)nc2C(=O)NS(C)(=O)=O)c2nc(N3CCC(C)(c4nn(C)cc4F)CC3)n(C)c(=O)c2c1 [Compound 406, (R)-6-chloro-3-((1-(2-(4-(4-fluoro-1-methyl-1H-pyrazol-3-yl)-4-methylpiperidin-1-yl)-3,6-dimethyl-4-oxo-3,4-dihydroquinazolin-8-yl)ethyl)amino)-N-(methylsulfonyl) picolinamide]	6.30 to 6.60	≤ 5.30
Cc1cc([C@@H](C)Nc2ccc(Cl)nc2C(=O)NS(C)(=O)=O)c2nc(N3CCC(C)(c4c(F)cnn4C)CC3)n(C)c(=O)c2c1 [Compound 407, (R)-6-chloro-3-((1-(2-(4-(4-fluoro-1-methyl-1H-pyrazol-5-yl)-4-methylpiperidin-1-yl)-3,6-dimethyl-4-oxo-3,4-dihydroquinazolin-8-yl)ethyl)amino)-N-(methylsulfonyl) picolinamide]	6.30 to 6.60	≤ 5.30
Cc1cc([C@@H](C)Nc2ccc(Cl)nc2C(=O)NS(C)(=O)=O)c2nc(N3CCC(c4nn(C)cc4F)CC3)n(C3CC3)c(=O)c2c1 [Compound 410, (R)-6-chloro-3-((1-(3-cyclopropyl-2-(4-(4-fluoro-1-methyl-1H-pyrazol-3-yl)piperidin-1-yl)-6-methyl-4-oxo-3,4-dihydroquinazolin-8-yl)ethyl)amino)-N-(methylsulfonyl) picolinamide]	6.30 to 6.60	≤ 5.30
Cc1cc([C@@H](C)Nc2ccc(Cl)nc2C(=O)NS(C)(=O)=O)c2nc(N3C[C@@H]4[C@H](C3)[C@H]4c3nn(C)cc3C)n(C)c(=O)c2c1 [Compound 415, 6-chloro-3-(((R)-1-(2-((1R,5S,6R)-6-(1,4-dimethyl-1H-pyrazol-3-yl)-3-azabicyclo[3.1.0]hexan-3-yl)-3,6-dimethyl-4-oxo-3,4-dihydroquinazolin-8-yl)ethyl)amino)-N-(methylsulfonyl) picolinamide]	> 6.60	5.30 to 6.00
Cc1cc([C@@H](C)Nc2ccc(Cl)nc2C(=O)NS(C)(=O)=O)c2nc(N3C[C@@H]4[C@H](C3)[C@H]4n3ccc(C)n3)n(C)c(=O)c2c1 [Compound 416, 6-chloro-3-(((R)-1-(3,6-dimethyl-2-((1R,5S,6S)-6-(3-methyl-1H-pyrazol-1-yl)-3-azabicyclo[3.1.0]hexan-3-yl)-4-oxo-3,4-dihydroquinazolin-8-yl)ethyl)amino)-N-(methylsulfonyl) picolinamide]	> 6.60	5.30 to 6.00
Cc1cc([C@@H](C)Nc2ccc(Cl)nc2C(=O)NS(C)(=O)=O)c2nc(N3C[C@@H]4[C@H](C3)[C@H]4n3nccc3C)n(C)c(=O)c2c1 [Compound 417, 6-chloro-3-(((R)-1-(3,6-dimethyl-2-((1R,5S,6S)-6-(5-methyl-1H-pyrazol-1-yl)-3-azabicyclo[3.1.0]hexan-3-yl)-4-oxo-3,4-dihydroquinazolin-8-yl)ethyl)amino)-N-(methylsulfonyl) picolinamide]	> 6.60	5.30 to 6.00
Cc1cc([C@@H](C)Nc2ccc(Cl)nc2C(=O)NS(C)(=O)=O)c2nc(N3C[C@@H]4[C@H](C3)[C@H]4c3cncc(C)n3)n(C)c(=O)c2c1 [Compound 418, 6-chloro-3-(((R)-1-(3,6-dimethyl-2-((1R,5S,6R)-6-(6-methylpyrazin-2-yl)-3-azabicyclo[3.1.0]hexan-3-yl)-4-oxo-3,4-dihydroquinazolin-8-yl)ethyl)amino)-N-(methylsulfonyl) picolinamide]	> 6.60	5.30 to 6.00
Cc1cc([C@@H](C)Nc2ccc(Cl)nc2C(=O)NS(C)(=O)=O)c2nc(N3C[C@@H]4[C@H](C3)[C@H]4c3ccn(C)n3)n(C3CC3)c(=O)c2c1 [Compound 419, 6-chloro-3-(((R)-1-(3-cyclopropyl-6-methyl-2-((1R,5S,6R)-6-(1-methyl-1H-pyrazol-3-yl)-3-azabicyclo[3.1.0]hexan-3-yl)-4-oxo-3,4-dihydroquinazolin-8-yl)ethyl)amino)-N-(methylsulfonyl) picolinamide]	6.30 to 6.60	5.30 to 6.00
Cc1cc([C@@H](C)Nc2ccc(Cl)nc2C(=O)NS(C)(=O)=O)c2nc(N3CCC(c4n[nH]cc4F)CC3)n(C)c(=O)c2c1 [Compound 420, (R)-6-chloro-3-((1-(2-(4-(4-fluoro-1H-pyrazol-3-yl)piperidin-1-yl)-3,6-dimethyl-4-oxo-3,4-dihydroquinazolin-8-yl)ethyl)amino)-N-(methylsulfonyl) picolinamide]	6.30 to 6.60	5.30 to 6.00
Cc1cc([C@@H](C)Nc2ccc(Cl)nc2C(=O)NS(C)(=O)=O)c2nc(N3CCC(c4nn(C)c(C)c4F)CC3)n(C)c(=O)c2c1 [Compound 421, (R)-6-chloro-3-((1-(2-(4-(4-fluoro-1,5-dimethyl-1H-pyrazol-3-yl)piperidin-1-yl)-3,6-dimethyl-4-oxo-3,4-dihydroquinazolin-8-yl)ethyl)amino)-N-(methylsulfonyl) picolinamide]	6.30 to 6.60	≤ 5.30
Cc1cc([C@@H](C)Nc2ccc(Cl)nc2C(=O)NS(C)(=O)=O)c2nc(N3CCC(c4cnc(C)c(F)c4)CC3)n(C)c(=O)c2c1 [Compound 422, (R)-6-chloro-3-((1-(2-(4-(5-fluoro-6-methylpyridin-3-yl)piperidin-1-yl)-3,6-dimethyl-4-oxo-3,4-dihydroquinazolin-8-yl)ethyl)amino)-N-(methylsulfonyl) picolinamide]	> 6.60	5.30 to 6.00

Now from value to compound:

pIC50 [1]	pIC50 [2]	Compound
> 6.60	≤ 5.30	Cc1ccc(C2CCN(c3nc4c([C@@H](C)Nc5ccc(Cl)nc5C(=O)NS(C)(=O)=O)cc(C)cc4c(=O)n3C)CC2)nc1 [Compound 403, (R)-6-chloro-3-((1-(3,6-dimethyl-2-(4-(5-methylpyridin-2-yl)piperidin-1-yl)-4-oxo-3,4-dihydroquinazolin-8-yl)ethyl)amino)-N-(methylsulfonyl) picolinamide]
> 6.60	5.30 to 6.00	Cc1cnc(C2CCN(c3nc4c([C@@H](C)Nc5ccc(Cl)nc5C(=O)NS(C)(=O)=O)cc(C)cc4c(=O)n3C)CC2)nc1 [Compound 404, (R)-6-chloro-3-((1-(3,6-dimethyl-2-(4-(5-methylpyrimidin-2-yl)piperidin-1-yl)-4-oxo-3,4-dihydroquinazolin-8-yl)ethyl)amino)-N-(methylsulfonyl) picolinamide]
> 6.60	5.30 to 6.00	Cc1cc([C@@H](C)Nc2ccc(Cl)nc2C(=O)NS(C)(=O)=O)c2nc(N3C[C@@H]4[C@H](C3)[C@H]4c3cnc(C)nc3)n(C)c(=O)c2c1 [Compound 405, 6-chloro-3-(((R)-1-(3,6-dimethyl-2-((1R,5S,6S)-6-(2-methylpyrimidin-5-yl)-3-azabicyclo[3.1.0]hexan-3-yl)-4-oxo-3,4-dihydroquinazolin-8-yl)ethyl)amino)-N-(methylsulfonyl) picolinamide]
> 6.60	≤ 5.30	COc1cnc(C2CCN(c3nc4c([C@@H](C)Nc5ccc(Cl)nc5C(=O)NS(C)(=O)=O)cc(C)cc4c(=O)n3C)CC2)cn1 [Compound 408, (R)-6-chloro-3-((1-(2-(4-(5-methoxypyrazin-2-yl)piperidin-1-yl)-3,6-dimethyl-4-oxo-3,4-dihydroquinazolin-8-yl)ethyl)amino)-N-(methylsulfonyl) picolinamide]
> 6.60	5.30 to 6.00	Cc1cc([C@@H](C)Nc2ccc(Cl)nc2C(=O)NS(C)(=O)=O)c2nc(N3C[C@@H]4[C@H](C3)[C@H]4c3cnn(C)n3)n(C)c(=O)c2c1 [Compound 409, 6-chloro-3-(((R)-1-(3,6-dimethyl-2-((1R,5S,6R)-6-(2-methyl-2H-1,2,3-triazol-4-yl)-3-azabicyclo[3.1.0]hexan-3-yl)-4-oxo-3,4-dihydroquinazolin-8-yl)ethyl)amino)-N-(methylsulfonyl) picolinamide]
> 6.60	5.30 to 6.00	C[C@@H](Nc1ccc(Cl)nc1C(=O)NS(C)(=O)=O)c1cc(F)cc2c(=O)n(C)c(N3C[C@@H]4[C@H](C3)[C@H]4c3cnn(C)c3)nc12 [Compound 411, 6-chloro-3-(((R)-1-(6-fluoro-3-methyl-2-((1R,5S,6S)-6-(1-methyl-1H-pyrazol-4-yl)-3-azabicyclo[3.1.0]hexan-3-yl)-4-oxo-3,4-dihydroquinazolin-8-yl)ethyl)amino)-N-(methylsulfonyl) picolinamide]
> 6.60	5.30 to 6.00	Cc1cc([C@@H](C)Nc2ccc(Cl)nc2C(=O)NS(C)(=O)=O)c2nc(N3CCC(c4c(F)cnn4C)CC3)n(C)c(=O)c2c1 [Compound 412, (R)-6-chloro-3-((1-(2-(4-(4-fluoro-1-methyl-1H-pyrazol-5-yl)piperidin-1-yl)-3,6-dimethyl-4-oxo-3,4-dihydroquinazolin-8-yl)ethyl)amino)-N-(methylsulfonyl) picolinamide]
> 6.60	5.30 to 6.00	Cc1cc([C@@H](C)Nc2ccc(Cl)nc2C(=O)NS(C)(=O)=O)c2nc(N3CCC(c4ccn(C(F)F)n4)CC3)n(C)c(=O)c2c1 [Compound 413, (R)-6-chloro-3-((1-(2-(4-(1-(difluoromethyl)-1H-pyrazol-3-yl)piperidin-1-yl)-3,6-dimethyl-4-oxo-3,4-dihydroquinazolin-8-yl)ethyl)amino)-N-(methylsulfonyl) picolinamide]
> 6.60	5.30 to 6.00	Cc1cc([C@@H](C)Nc2ccc(Cl)nc2C(=O)NS(C)(=O)=O)c2nc(N3CCC(c4ccnn4C(F)F)CC3)n(C)c(=O)c2c1 [Compound 414, (R)-6-chloro-3-((1-(2-(4-(1-(difluoromethyl)-1H-pyrazol-5-yl)piperidin-1-yl)-3,6-dimethyl-4-oxo-3,4-dihydroquinazolin-8-yl)ethyl)amino)-N-(methylsulfonyl) picolinamide]
